The conditions of data set [1]: conjugate acid pKa, cited from earlier work.
A short description of data set [2]: Accelerated oxidative degradation of diethanolamine solutions with sacrificial amine (CO2/O2, 55° C., 13C-NMR). As to conditions: 5.9 mol/L DEA and 0.1 mol/L additive, CO2 (1 bar), O2 (9 bar), 115 hours.
Protocol: The effect of 3-aminomethylpyridine (3-AMPy) and benzylamine (BZA) on the degradation of DEA was investigated using accelerated degradation conditions designed to simulate longer-term degradation in a gas capture process. DEA solutions were thus prepared as follows: i) 6 mol/L DEA; ii) 5.9 mol/L DEA and 0.1 mol/L BZA; and iii) 5.9 mol/L DEA and 0.1 mol/L 3-AMPy. Each solution (10 ml) was placed in a Fischer-Porter vessel. The vessels were sealed and the remaining headspace of the vessels was filled with CO2 (1 bar) and O2 (9 bar). The liquid phase in the vessels was stirred via magnetic stirring bars and heated to 55° C. by immersion in a water bath for 115 hours.
Samples were then taken and analysed by ^13C-NMR spectroscopy (Bruker Avance 400).
Data set [3] can be described thus: Accelerated oxidative degradation of benzylamine (CO2/O2, 55° C., 13C-NMR). The format is physicochemical. As to conditions: 1 mol/L, CO2 (1 bar) and O2 (9 bar), 10 days, relative 13C-NMR peak areas. The method, then: A solution of 10 mL of 1 mol/L BZA was placed in a Fischer-Porter vessel. […] Based on relative peak areas approximately 41% of the BZA had been converted to imine.

The nature of data set [4]: Extraction of imine dimer into organic solvents (liquid-liquid partition, GC-MS, 13C NMR). The format is physicochemical. The procedure:
A sample of the aqueous absorbent, which had initially contained 3 mol/L 3-AMPy and 3 mol/L 2-amino-2-methyl-1-propanol (AMP), was taken after 3800 hours (c.a. 158 days) of operation in the pilot plant campaign described in Example 2. Despite the improved stability of the solution as a result of the AMP, it is evident from FIG. 3 that imine dimer degradation product was present in significant quantities (c.a. 0.2 mol/litre) by this time.
Equal volumes of the sample and dichloromethane were vigorously shaken in a separating funnel and allowed to undergo phase separation. The two phases were then collected and separately analysed by GC-MS. FIGS. 4 and 5 depict gas chromatographs of the organic and aqueous phases respectively, with the peaks identified by mass spectrometry via comparison against libraries of reference spectra.
Samples of the same aqueous absorbent were also extracted with equal volumes of toluene or ethyl acetate. The organic phases after extraction with dichloromethane, toluene and ethyl acetate were analysed by ^13C NMR.

Data set [5] can be described thus: Hydrolysis of imine dimer under acidic aqueous conditions. Type of data set: physicochemical. As to conditions: acetic acid and water with DCM solution, room temperature, 24 hours. From the text: The imine of Formula (II) is found to be unstable in acidic aqueous conditions. For the case where the degradation product is extracted from the liquid absorbent into an organic solvent, hydrolysis may thus be achieved by contacting the separated organic phase with an acidified aqueous phase, for example containing a catalytic amount of acetic acid. After suitable mixing and time for hydrolysis, the two phases are separated by conventional liquid-liquid separation techniques, with the regenerated amine of Formula (I) partitioned into the aqueous phase and the less polar aldehyde of Formula (III) remaining in the organic phase. The aqueous phase, now containing a first portion of regenerated amine of Formula (I), may then be recycled to the gas absorption process. It will be appreciated that a theoretical maximum of 50 mol % of the degraded amine may be recovered by this process step, since each molecule of imine incorporates two amine molecules.
A sample of the aqueous absorbent, which had initially contained 3 mol/L 3-AMPy and 3 mol/L 2-amino-2-methyl-1-propanol (AMP) and was taken after c.a. 3800 hours (c.a. 158 days) of operation in the pilot plant campaign described in Example 2. The sample was shaken with an equal volume of dichloromethane (DCM) in a separating funnel for 1 minute. The phases were then allowed to separate and each phase was collected separately. […]

A short description of data set [6]: Extraction of imine dimer by solid absorption on Amberlite XAD-2. Type of data set: physicochemical. As to conditions: Amberlite XAD-2, stirred 2 hours, 13C NMR. The method, then:
A sample of the aqueous absorbent, which had initially contained 3 mol/L 3-AMPy and 3 mol/L 2-amino-2-methyl-1-propanol (AMP), was taken after 5000 hours (c.a. 208 days) of operation in the pilot plant campaign described in Example 2. Despite the improved stability of the solution as a result of the AMP, imine dimer degradation product was present in significant quantities (c.a. 0.35 mol/litre) by this time.
Amberlite XAD-2, a hydrophobic crosslinked polystyrene copolymer resin, was washed 3 times in deionized water followed by washing 3 times in dichloromethane (DCM). The cleaned beads were mixed with the absorbent sample that had been exposed to 5000 hours of flue gas. The mixture was stirred for 2 hours to allow the hydrophobic components to adhere to the polymer resin. The mixture was filtered to remove the water soluble portion of the degraded amine absorbent. The beads were washed with water and this water added to the filtrate. The beads were then washed with 3 portions of DCM, and the collected DCM was partially evaporated.
Very little amine was extracted into the beads and carried over to the DCM wash, as evidenced by the lack of peaks near 42 ppm (these peaks are present in the sample and aqueous filtrate spectra). […]

The nature of data set [7]: Viscosity of absorbent (Anton Parr LOVIS 2000 ME, 40° C.). As to conditions: imine added to fresh absorbent. Type of data set: physicochemical. The procedure: Another sample of the aqueous absorbent, which had initially contained 3 mol/L 3-AMPy and 3 mol/L 2-amino-2-methyl-1-propanol (AMP) and was taken after c.a. 5000 hours (c.a. 208 days) of operation in the pilot plant campaign described in Example 2, was extracted with dichloromethane as described in Example 5. As a result of the extraction, the viscosity of the sample was reduced from 9.9 mPa·s to 6.0 mPa·s (measured at 40° C. using an Anton Parr LOVIS 2000 ME instrument). By comparison, the viscosity of the fresh, CO2 free absorbent was 4.7 mPa·s. The effect of the viscosity reduction is to improve the performance of the absorbent in the plant through better flow properties and reduced mass transfer resistance.
The synthesised imine (structure confirmed by IR spectroscopy) was added to fresh absorbent and the impact on viscosity measured (measured at 40° C. using an Anton Parr LOVIS 2000 ME).

Each structure is given as a SMILES string. Where two headings read alike, the source gives them in different places.

Regarding `CC(N)CO` (stereo not drawn) [2-amino-1-propanol], the “pKa at 25° C.” value in data set [1] (table in description) and in data set [1] (table of Example 4) was 9.5 each time.

For `OCC1CCCCN1` (stereo not drawn) [2-piperidinylmethanol], in data set [1] (table of Example 4), the “pKa at 25° C.” value is 10.1.

In the case of `NCc1cccnc1` [3-(aminomethyl)pyridine], the “DEA degradation (13C-NMR peak at 67 ppm) in presence of sacrificial amine” value in data set [2] is given as “this degradation has not occurred”.

As for `OCC1CCNCC1` [4-piperidinylmethanol], in data set [1] (table of Example 4), the “pKa at 25° C.” value was 10.6.

Take `NCc1ccccc1` [BZA, benzylamine]: the “amine converted to imine” value in data set [3] was “approximately 41%”.

As to `C(=NCc1cccnc1)c1cccnc1` [imine dimer], the “extraction into organic phase” value in data set [4] (dichloromethane, toluene or ethyl acetate, equal volumes, 13C NMR) is “successful and selective extraction”. The “phase distribution after extraction” value in data set [4] (equal volumes of used absorbent sample and dichloromethane, GC-MS) is recorded as “almost exclusively present in the organic phase”. The “stability under acidic aqueous conditions” value in data set [5] is on record as “unstable”. The “extraction by hydrophobic resin beads” value in data set [6] was “majority of the imine was extracted”. Besides, in data set [7], the “impact on viscosity of fresh absorbent” value was “increased with the concentration of synthetic imine added”.

Turning to `NCCS(=O)(=O)[O-].[K+]` [potassium taurate], the “pKa at 25° C.” value in data set [1] (table in description) and in data set [1] (table of Example 4) was 9.1 in each case.

Regarding `NCC(=O)[O-].[Na+]` [sodium glycinate], the “pKa at 25° C.” value in data set [1] (table in description) and in data set [1] (table of Example 4) was 9.6 in each case.
